Where two headings read alike, the source gives them in different places.
Experiments:
C. elegans = C. elegans lifespan assays (liquid and plate); format: in vivo, Caenorhabditis elegans; details: for ILS at 66 µM / ILS at 60 µM: Caenorhabditis elegans; for O = Life span- extending scores in worms: score scale 0 to 2, 4 to 6 independent trials; for M = Lifespan-extending scores in worms: summary score
human PARP1 = target: T1, human PARP1 (Homo sapiens, UniProt P09874); experiment: PARP inhibitor assay (HT Fluorescent Homogeneous PARP Inhibition Assay Kit); format: biochemical; details: score
T1 construct: purchased Trevigen
T1 sequence (P09874 whole entry): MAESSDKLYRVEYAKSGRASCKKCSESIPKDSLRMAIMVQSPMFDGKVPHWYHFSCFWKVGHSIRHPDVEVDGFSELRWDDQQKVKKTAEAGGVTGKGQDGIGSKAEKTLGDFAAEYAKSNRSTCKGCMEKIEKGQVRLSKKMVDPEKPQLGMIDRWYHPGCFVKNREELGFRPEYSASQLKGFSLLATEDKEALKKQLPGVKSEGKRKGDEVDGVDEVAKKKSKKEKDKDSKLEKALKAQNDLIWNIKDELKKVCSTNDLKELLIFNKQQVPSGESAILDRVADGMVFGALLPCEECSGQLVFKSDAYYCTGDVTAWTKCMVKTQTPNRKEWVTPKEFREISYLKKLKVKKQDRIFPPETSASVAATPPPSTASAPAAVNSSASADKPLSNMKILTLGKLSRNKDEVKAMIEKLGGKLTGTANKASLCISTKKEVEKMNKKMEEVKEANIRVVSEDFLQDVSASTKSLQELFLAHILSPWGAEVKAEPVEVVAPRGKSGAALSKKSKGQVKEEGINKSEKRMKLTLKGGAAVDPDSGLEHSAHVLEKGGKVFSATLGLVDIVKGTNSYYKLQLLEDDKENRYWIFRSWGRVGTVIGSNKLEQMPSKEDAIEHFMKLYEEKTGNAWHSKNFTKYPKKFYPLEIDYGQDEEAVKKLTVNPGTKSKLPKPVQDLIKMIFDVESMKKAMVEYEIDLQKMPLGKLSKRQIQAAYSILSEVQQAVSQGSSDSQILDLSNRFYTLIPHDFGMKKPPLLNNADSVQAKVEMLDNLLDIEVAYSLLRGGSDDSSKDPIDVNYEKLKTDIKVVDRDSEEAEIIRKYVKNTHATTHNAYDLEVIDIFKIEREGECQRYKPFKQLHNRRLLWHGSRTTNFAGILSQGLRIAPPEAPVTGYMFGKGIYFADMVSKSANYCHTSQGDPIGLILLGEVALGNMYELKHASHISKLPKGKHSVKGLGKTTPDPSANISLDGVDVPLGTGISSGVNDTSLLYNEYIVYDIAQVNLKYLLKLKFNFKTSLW
In short: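 Human PARP1 with NAD and activated DNA, compounds at 10 μM final, 30 min at room temperature in dark. Resazurin/diaphorase cycling mix then added for 1 hr in dark before stop buffer; fluorescent homogeneous kit read-out.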

WI-38 cells [1] = details: for No H2O2 stress treatment, at 10 uM (fold change): normalized ATP measurement
[2] = tested on: PC12 cells expressing poly(Q)103-Htt-EGFP; experiment: Poly(Q) toxicity & viability analysis (cellular model of Huntington's disease); format: cell-based, rat; details: for M = Huntington's poly-Q toxicity attenuation: score; for K = Huntington's poly-Q toxicity attenuation: summary score
In short: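 PC12 cells stably carrying inducible poly(Q)103-Htt-EGFP, whose induced expression causes aggregation and toxicity. Viability read 48 hrs later as ATP content by CellTiter-Glo.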

WI-38 cells [3] = experiment: MMS resistance assay; format: cell-based, human; details: for fold induction at 10 µM: Homo sapiens, 12 h, normalized ATP measurement
In short: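 WI-38 cells were given compounds at five final concentrations (0.25–20 μM) in triplicate, followed by cadmium or MMS for 12 h. For MMS, medium was switched from OptiMEM+10% FBS to serum-free DMEM+2% BSA when compounds were added, 24 h before stressor. Two independent assays were run, analysed by global variance t-test.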

[4] = tested on: phosphorylated γH2A.X and TP53BP1; experiment: DNA damage marker analysis (immuno-staining); details: for activity at 10 µM: Homo sapiens, WI-38, 24 h; for P = Potential DNA-damaging / R = Potential DNA damaging: human, 24 h
In short: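 WI-38 cells were cultured 24 h, then treated with compounds for 24 h; H2O2 (700 μM, 3 h) and doxorubicin (300 nM, 24 h) served as DNA-damage controls. After fixation, cells were immunostained for phospho-γH2A.X (Ser-139) and phospho-TP53BP1 (Ser-1778), counterstained with DAPI, and imaged by automated high-content microscopy.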

[5] = Assay 2(z), 1.0 × 10^9 bacteria/ml, wild type + FuDR (2012 July), read-out: Lifespan assay in liquid
[6] = Assay 3(aa), 2.5 × 10^9 bacteria/ml, wild type + FuDR, read-out: Lifespan assay in liquid
[7] = Assay 4(ab), 2.0 × 10^10 bacteria/ml, CF512 worms, no FuDR, read-out: Lifespan assay on plates
[8] = WI-38 cells, 10 μM, (*) = compromised ability to protect cells from H2O2, could be due to stability issue
[9] = asterisks indicate the loss of the ability to protect cells from H2O2 over time
[10] = derived from dose response curves, 0.6-20 uM, H2O2-resistance of WI-38 cells
[11] = read-out: Est. ED50, dose response 0.6-20 μM, H2O2-resistance
[12] = Exp. 1, WI-38 cells, read-out: Exp. 1, under MMS stress treatment, at 10 uM (fold change)
[13] = Exp. 2, WI-38 cells, read-out: Exp. 2, under MMS stress treatment, at 10 uM (fold change)
[14] = score in summary of 38 core set hits
[15] = read-out: Experiment 1, H2A.X-P DNA damage foci staining (no H2O2 stress treatment), at 10 uM
[16] = read-out: Experiment 2, H2A.X-P DNA damage foci staining (no H2O2 stress treatment), at 10 uM
[17] = read-out: Experiment 2, H2A.X-P DNA damage foci staining (under H2O2 stress treatment), at 10 uM
[18] = read-out: Experiment 2, TP53BP1-P DNA damage foci staining (no H2O2 stress treatment), at 10 uM
[19] = read-out: Experiment 2, TP53BP1-P DNA damage foci staining (under H2O2 stress treatment), at 10 uM

Row | Structure (SMILES) | ILS at 66 µM (C. elegans; [5]) [%] | ILS at 66 µM (C. elegans; [6]) [%] | ILS at 66 µM (C. elegans; [7]) [%] | O = Life span- extending scores in worms (C. elegans) | M = Lifespan-extending scores in worms (C. elegans) | L = PARP inhibition (human PARP1) | H2O2-resistant (WI-38 cells [1]; [8]) | No H2O2 stress treatment, at 10 uM (fold change) (WI-38 cells [1]; WI-38 cells) | H2O2-resistant (WI-38 cells [1]; [9]) | EC50 (WI-38 cells [1]; [10]) [µM] | EC50 (WI-38 cells [1]; [11]) [µM] | M = Huntington's poly-Q toxicity attenuation [2] | K = Huntington's poly-Q toxicity attenuation [2] | fold induction at 10 µM (WI-38 cells [3]; [12]) | fold induction at 10 µM (WI-38 cells [3]; [13]) | B = MMS resistant (WI-38 cells [3]; [14]) | B = MMS resistant (WI-38 cells [3]; summary score) | D = Triple resistant (WI-38 cells [3]; summary score) | activity at 10 µM [4, 15] [%] | activity at 10 µM [4, 16] [%] | also measured
1 | Nc1ccccc1S(=O)(=O)Nc1cccc2cccnc12 [Gr-3C] | 18.9 | 11.9 | 8 | 2 (2 for observed in more than 2 trials) | 2 (2 for observed in more than 2 trials) | 0 | YES | 0.95 | YES | 6.5 | 4.6 | 0 | 0 | 1.06 | 0.84 | 0 | 0 | 0 | 113 | 404 | ILS at 60 µM (C. elegans; read-out: relative change of mean lifespan vs control, Trial 1): 18.9%; ILS at 60 µM (C. elegans; read-out: relative change of mean lifespan vs control, Trial 2): 11.9%; ILS at 60 µM (C. elegans; read-out: relative change of mean lifespan vs control, Trial 3): 8%; Extension of C. elegans' lifespan (qualitative) (C. elegans; in at least 3 to 4 trials, group range ~10% to ~50%): could extend animal's lifespan; activity at 10 µM [4, 17]: 136%; activity at 10 µM [4, 18]: 254%; activity at 10 µM [4, 19]: 390%; P = Potential DNA-damaging [4]: 1; R = Potential DNA damaging [4]: 1
2 | CCc1ccccc1NC(=O)c1ccc([N+](=O)[O-])o1 [Gr-1C] | 14.4 | 1.7 | 14.7 | 1 (1 for lifespan extension observed in 2 trials) | 1 (1 for lifespan extension observed in 2 trials) | 0 | YES | 0.81 | YES | 8 | 2.66 | 1 | 1 | 0.73 | 0.39 | 0 | 0 | 0 | 217 | 311 | ILS at 60 µM (C. elegans; 60 μM, in liquid, wild type, with FuDR, 1.0 × 10^9 bacteria/ml, read-out: relative change of mean lifespan vs control, Trial 1): 14.4%; ILS at 60 µM (C. elegans; 60 μM, in liquid, wild type, with FuDR, 2.5 × 10^9 bacteria/ml, read-out: relative change of mean lifespan vs control, Trial 2): 1.7%; ILS at 60 µM (C. elegans; 60 μM, on plate, CF512 temperature-sensitive sterile animals, without FuDR, 2.0 × 10^10 bacteria/ml, read-out: relative change of mean lifespan vs control, Trial 3): 14.7%; Assay 1: H2O2-resistant (WI-38 cells [1]; YES/NO, if NO, possibly due to repeated freezing/thawing of stocks): YES; Viability of PC12 cells upon induction of toxic poly(Q)103-Htt-EGFP aggregates ([2]; 2.5 μM, 5 μM, 10 μM and 20 μM): consistently increased the viability; Assay 20: Huntington's poly-Q toxicity attenuation ([2]; 10 uM, YES/NO): YES; activity at 10 µM [4, 17]: 178%; activity at 10 µM [4, 18]: 375%; activity at 10 µM [4, 19]: 552%; P = Potential DNA-damaging [4]: 1; R = Potential DNA damaging [4]: 1

Reference: patent publication US11413278B2, “Compounds and methods for promoting stress resistance” (priority 2015, dated 2022)
